Here are results for 1 cell line from the supplement of paper PMC10307832.

What all share (assay): relative viability (nuclei count vs DMSO), 5 days (fraction); higher = more cells survive
Compound in the experiment “BI-2536 + Navitoclax”: CC[C@@H]1C(=O)N(C)c2cnc(Nc3ccc(C(=O)NC4CCN(C)CC4)cc3OC)nc2N1C1CCCC1 [BI-2536] + CC1(C)CCC(c2ccc(Cl)cc2)=C(CN2CCN(c3ccc(C(=O)NS(=O)(=O)c4ccc(N[C@H](CCN5CCOCC5)CSc5ccccc5)c(S(=O)(=O)C(F)(F)F)c4)cc3)CC2)C1 [Navitoclax] (partner 0.5 µM)
Put shortly:
(§1)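 Relative viability equals treated-well nuclei counts divided by vehicle-well nuclei counts. Counts came from 4× images of lung cancer cell lines grown in 1536-well plates for 5 days after pin-tool dosing on the day after seeding. Dosing used one drug alone or a fixed anchor-drug dose plus five library-drug doses (not always all listed) in √10 steps, and values are medians of duplicate plates.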

Compound in the experiment “BI-2536 + Phenformin”: CC[C@@H]1C(=O)N(C)c2cnc(Nc3ccc(C(=O)NC4CCN(C)CC4)cc3OC)nc2N1C1CCCC1 [BI-2536] + N=C(N)NC(=N)NCCc1ccccc1 [Phenformin] (partner 250 µM)
Put shortly: as §1

Compound in experiment [1]: CC1CC(=O)N(C2=CN=C(N=C2N1C3CCCC3)NC4=C(C=C(C=C4)C(=O)NC5CCN(CC5)C)OC)C [NPK76-II-72-1] + CC(=O)c1c(C)c2cnc(Nc3ccc(N4CCNCC4)cn3)nc2n(C2CCCC2)c1=O [Palbociclib] (partner 0.5 µM)
The gist of the method:
as §1

Compound in the experiment “BI-2536 + Vorinostat”: CC[C@@H]1C(=O)N(C)c2cnc(Nc3ccc(C(=O)NC4CCN(C)CC4)cc3OC)nc2N1C1CCCC1 [BI-2536] + O=C(CCCCCCC(=O)Nc1ccccc1)NO [Vorinostat] (partner 1 µM)
Put shortly:
as §1

On to UMC-11, for which the relative viability in the experiment with BI-2536 + Navitoclax (first compound 0.01 µM) is 0.279; in the experiment with BI-2536 + Navitoclax (first compound 0.03162 µM), 0.286; in the experiment with BI-2536 + Navitoclax (first compound 0.1 µM), 0.166; in the experiment with BI-2536 + Navitoclax (first compound 0.3162 µM), 0.136; in the experiment with BI-2536 + Navitoclax (first compound 1 µM), 0.112; with BI-2536 + Phenformin (first compound 0.01 µM), 0.286. Moreover, the relative viability with BI-2536 + Phenformin (first compound 0.03162 µM) worked out at 0.233; in the experiment with BI-2536 + Phenformin (first compound 0.1 µM) it was 0.177; with BI-2536 + Phenformin (first compound 0.3162 µM), 0.192; with BI-2536 + Phenformin (first compound 1 µM) it was 0.175; in experiment [1] (first compound 0.01 µM) it was 0.301; in experiment [1] (first compound 0.03162 µM), 0.326. Further, the relative viability was found to be 0.265 in experiment [1] (first compound 0.1 µM); 0.355 in experiment [1] (first compound 0.3162 µM); 0.355 in experiment [1] (first compound 1 µM); 0.343 with BI-2536 + Vorinostat (first compound 0.01 µM); 0.315 with BI-2536 + Vorinostat (first compound 0.03162 µM); 0.187 with BI-2536 + Vorinostat (first compound 0.1 µM). The figures for the relative viability with BI-2536 + Vorinostat (first compound 0.3162 µM) and with BI-2536 + Vorinostat (first compound 1 µM) were 0.18 and 0.145, respectively.
